Experimental data taken from patent US10894798B2, “Substituted dihydropyrrolopyrazole derivative” (UBE INDUSTRIES, LTD., priority 2015, dated 2021).

How the values were obtained:
CDK7 = molecular target: T1, CDK7 (Homo sapiens, UniProt P50613); assay: CDK7 enzyme inhibition test; assay type: biochemical; conditions: [γ-33P]ATP, MBP substrate, 60 min preincubation at 25°C; Ki=IC50/(1+S/Km); read-out: Ki value of CDK7 inhibitory activity
T1 construct: purchased Carna Biosciences, Inc. 04-108
Method in brief: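 Commercial human CDK7 with myelin basic protein substrate in HEPES pH 7.4 buffer with DTT, Triton X-100, MgCl2; compound preincubated 60 min at 25° C, then reaction run 20 min at 30° C after adding [γ-^33P]ATP (500 μM solution). TCA-precipitated ^33P-MBP counted by scintillation; IC50 converted to Ki via Ki=IC50/(1+S/Km).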

[1] = tested on: human large intestine cancer cell line (HCT-116); assay: Human large intestine cancer (HCT-116) cell growth inhibition test; assay type: cell-based; conditions: HCT-116, 72 h, culture for 3 days, sulforhodamine B, read-out: GI50 value, HCT-116 cell growth inhibition
Method in brief: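 HCT-116 cells were seeded at 0.5 to 2.0×10^3 cells/well in McCoy's 5A with 10% FBS and dosed with compound at 0.1% final DMSO after overnight culture. Growth was measured by sulforhodamine B absorbance after 3 days. GI50 was calculated from the inhibition rate at each concentration.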

[2] = tested on: human large intestine cancer cell (HCT 116) tumor; assay: Tumor growth inhibition test in HCT 116-subcutaneously transplanted nude mouse; assay type: in vivo; conditions: dose of 100 mg/kg, repeated oral administration, HCT-116 in female BALB nude mice, control group = 100%, read-out: rate of suppression of tumor volume
Description: A human large intestine cancer cell line (HCT-116) was cultured in a McCoy's 5A medium containing 10% FBS and 1% penicillin/streptomycin/amphotericin B and adjusted to 1.0×10^8 cells/mL with PBS or Hanks solution (HBSS(−)). The prepared cell suspension was subcutaneously injected at 0.1 mL/mouse to the right abdomens of female BALB nude mice (supplied by Charles River Laboratories Japan, Inc.). After rearing for a certain period, the long diameter (mm) and short diameter (mm) of tumor were measured with electronic calipers, and the tumor volume was calculated according to the following expression: Tumor volume (mm^3)=(Long diameter)×(Short diameter)×(Short diameter)×0.5
Individuals whose tumor volume was within the range of 50 to 200 mm^3 were selected and grouped such that the tumor volume was almost equivalent, then a test compound or only a solvent was orally administered in a repeated manner, and the body weights and tumor volume were measured. A test compound was suspended in a 0.5 w/v % aqueous methylcellulose solution (0.5% MC) (manufactured by Wako Pure Chemical Industries, Ltd.) and orally administered at 10 mL/kg in a repeated manner. When the tumor volume of the control group was defined as 100%, the rate of suppression of tumor volume (%) at each dose of the test compound was calculated.

T1 sequence (P50613 whole entry): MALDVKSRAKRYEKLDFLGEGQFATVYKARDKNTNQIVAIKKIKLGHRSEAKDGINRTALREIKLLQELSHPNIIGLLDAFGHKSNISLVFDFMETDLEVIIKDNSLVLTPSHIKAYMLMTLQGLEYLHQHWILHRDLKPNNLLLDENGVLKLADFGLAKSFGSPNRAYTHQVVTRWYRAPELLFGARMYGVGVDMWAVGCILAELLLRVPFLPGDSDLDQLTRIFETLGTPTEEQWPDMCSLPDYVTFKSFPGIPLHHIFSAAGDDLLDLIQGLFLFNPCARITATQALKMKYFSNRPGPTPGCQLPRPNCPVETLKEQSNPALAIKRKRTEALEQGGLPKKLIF
T1 sequence (P51946 whole entry partner): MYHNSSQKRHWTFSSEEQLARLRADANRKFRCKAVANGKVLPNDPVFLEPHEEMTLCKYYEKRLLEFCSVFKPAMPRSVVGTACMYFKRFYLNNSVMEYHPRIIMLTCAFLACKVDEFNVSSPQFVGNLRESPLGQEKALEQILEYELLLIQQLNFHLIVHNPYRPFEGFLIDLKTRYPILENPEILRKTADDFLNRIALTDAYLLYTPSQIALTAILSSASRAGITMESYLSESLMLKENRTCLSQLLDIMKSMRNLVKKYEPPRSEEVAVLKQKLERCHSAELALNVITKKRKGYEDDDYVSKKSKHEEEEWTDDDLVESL
T1 sequence (P51948 whole entry partner): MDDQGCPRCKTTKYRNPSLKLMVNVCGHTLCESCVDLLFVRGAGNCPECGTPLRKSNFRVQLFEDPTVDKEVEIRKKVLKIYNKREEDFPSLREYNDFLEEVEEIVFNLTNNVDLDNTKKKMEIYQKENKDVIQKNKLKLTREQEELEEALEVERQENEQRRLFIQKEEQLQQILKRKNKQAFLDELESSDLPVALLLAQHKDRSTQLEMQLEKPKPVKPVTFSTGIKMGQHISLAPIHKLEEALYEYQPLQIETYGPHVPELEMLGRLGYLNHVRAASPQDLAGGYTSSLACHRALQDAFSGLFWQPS

CC1(C)c2[nH]nc(NC(=O)C3([Si](C)(C)C)CCC3)c2CN1C(=O)Nc1c(F)ccc2cc(Cl)oc12 [IV-1063, N-(2-Chloro-6-fluorobenzofuran-7-yl)-6,6-dimethyl-3-[1-(trimethylsilyl)cyclobutanecarboxamido]-4,6-dihydropyrrolo[3,4-c]pyrazole-5(1H)-carboxamide] was tested, and the Ki (CDK7) was no more than 0.05 µM, the GI50 [1] was no more than 0.1 µM and the inhibition in vivo at 100 mg/kg [2] was no less than 50%.
